Results on 33 compounds are retold here after patent publication US9199962B2, “Substituted azaheterocycles for the treatment of cancer” (Merck Patent GmbH, priority 2011, dated 2015).

A word on the IC50: it is the concentration that inhibits the measured activity by half.

The target in one experiment is T1, GST-FAK (N-terminal GST fusion with truncated human FAK (376-1052 (end) amino acids)) (Homo sapiens, UniProt Q05397).
T1 construct: truncated human FAK (376-1052 (end) amino acids)
T1 sequence (Q05397 376-1052): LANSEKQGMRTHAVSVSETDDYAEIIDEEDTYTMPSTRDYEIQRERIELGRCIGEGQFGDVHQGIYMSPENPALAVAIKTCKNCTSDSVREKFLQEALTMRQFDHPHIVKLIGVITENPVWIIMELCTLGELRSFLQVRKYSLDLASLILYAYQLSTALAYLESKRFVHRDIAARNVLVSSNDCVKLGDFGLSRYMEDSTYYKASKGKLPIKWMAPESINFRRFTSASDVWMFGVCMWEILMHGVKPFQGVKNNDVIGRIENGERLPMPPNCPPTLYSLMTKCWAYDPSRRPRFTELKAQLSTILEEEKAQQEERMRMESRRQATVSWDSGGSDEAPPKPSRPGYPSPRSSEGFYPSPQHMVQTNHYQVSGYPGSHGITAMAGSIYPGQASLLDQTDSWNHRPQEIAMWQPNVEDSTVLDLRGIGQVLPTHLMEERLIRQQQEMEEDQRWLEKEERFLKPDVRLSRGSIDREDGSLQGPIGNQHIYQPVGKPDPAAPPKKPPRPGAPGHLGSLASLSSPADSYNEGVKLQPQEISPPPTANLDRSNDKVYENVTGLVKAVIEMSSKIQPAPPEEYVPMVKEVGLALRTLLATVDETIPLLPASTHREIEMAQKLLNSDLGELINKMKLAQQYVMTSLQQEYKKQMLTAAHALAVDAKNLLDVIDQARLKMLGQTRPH
The experiment in a line: Biochemical enzyme assay for FAK activity (Caliper LC3000 mobility shift). As to conditions: Table 1; 100 uM ATP; read-out: FAK IC50. On the procedure:
1. Biochemical Enzyme Assays for FAK Activity
The FAK assays described here are performed on two Caliper Life Sciences systems, the LC3000 and the EZ Reader II. These provide data on enzyme activity via measurement of the relative amounts of phosphorylated or unphosphorylated fluorescently labelled substrate peptide at the end of an enzymatic reaction. These different states of peptide are resolved by applying a potential difference across the sample. The presence of the charged phosphate group on the product (as opposed to the substrate) causes different peptide mobility between the two peptides. This is visualized by excitation of the fluorescent label on the substrate and product peptides and represented as peaks within the analysis software.
In order to measure inhibitor activity of FAK, inhibitors in the Caliper Life Sciences LC3000, a TTP Mosquito liquid handling instrument is used to place 0.25 ul of the appropriate concentration of inhibitor in 100% DMSO (for a dose response curve calculation) into each well of a 384-well plate. To this reaction components are added to a final volume of 25 ul: • 0.067 ng/ul GST-FAK (N-terminal GST fusion with truncated human FAK (376-1052 (end) amino acids)) • 100 uM ATP • 1 mM DTT • 1 mM MgCl2 • 1 uM substrate peptide (sequence FITC-KGWMEDYDYVHLQGKK-(CONH2)SEQ ID NO: 1)) • 1 mM FERM peptide (sequence NH2-GATQSFIIR-COOH (SEQ ID NO: 2)) • 100 mM HEPES pH 7.5 • 0.015% Brij-35
The reaction is incubated for 90 min at 25 C, and then stopped by the addition of 70 ul of Stop buffer (100 mM HEPES pH 7.5, 0.015% Brij-35, 10 mM EDTA).
The plate is read on a Caliper LC 3000 in an Off-Chip mobility shift assay format, using the following parameters for a 12-sipper chip: screening pressure—1.9 psi, upstream voltage—3000, downstream voltage—700. These conditions cause unphosphorylated substrate and phosphorylated product peptide to resolve as separate peaks allowing direct measurement of percentage of conversion of substrate to product. The percent conversion can be plotted against concentration of inhibitor to produce a sigmoid dose response curve, from which an IC50 can be calculated using XLFit for Microsoft Excel.
For the compound `CC1(C)Cc2cccc(CNc3ccnc(-c4cncc(C(=O)N5CCOCC5)c4)n3)c2O1` [Compound 40, (5-{4-[(2,2-Dimethyl-2,3-dihydro-benzofuran-7-ylmethyl)-amino]-pyrimidin-2-yl}-pyridin-3-yl)-morpholin-4-yl-methanone], the IC50 is greater than 10 µM.
Same read-out and setting: the figure for `Fc1cc(Cl)ccc1CNc1ccnc(-c2cncc(Cl)c2)n1` [Compound 32, (4-Chloro-2-fluoro-benzyl)-[2-(5-chloro-pyridin-3-yl)-pyrimidin-4-yl]-amine] is less than 0.1 µM; for `O=C(c1cncc(-c2nccc(NCc3cccc(Oc4cnccn4)c3)n2)c1)N1CCOCC1` [Compound 23, Morpholin-4-yl-(5-{4-[3-(pyrazin-2-yloxy)-benzylamino]-pyrimidin-2-yl}-pyridin-3-yl)-methanone] it is greater than 10 µM.
On to `COc1cncc(-c2nccc(NCc3ccc(Cl)cc3F)n2)c1` [Compound 16, (4-Chloro-2-fluoro-benzyl)-[2-(5-methoxy-pyridin-3-yl)-pyrimidin-4-yl]-amine], for which the half-maximal inhibitory concentration (IC50) lay within 0.1 to 1 µM.

Staying with this experiment, now noted: Table 2; 100 uM ATP; read-out: FAK IC50.
Regarding `CC(Nc1ccnc(-c2cncc(C(F)(F)F)c2)n1)c1ccc(F)cc1` (stereo not drawn) [Compound 68, [1-(4-Fluoro-phenyl)-ethyl]-[2-(5-trifluoromethyl-pyridin-3-yl)-pyrimidin-4-yl]-amine], the IC50 was 0.1 to 1 µM.
As to `O=C(NCCN1CCNC1=O)c1cc(NCc2ccc(F)cc2F)nc(-c2cncc(C(F)(F)F)c2)n1` [Compound 75, 6-(2,4-Difluoro-benzylamino)-2-(5-trifluoromethyl-pyridin-3-yl)-pyrimidine-4-carboxylic acid [2-(2-oxo-imidazolidin-1-yl)-ethyl]-amide], the IC50 was 0.1 to 1 µM.
On the same count and under the same terms, the figure for `OCC(Nc1ccnc(-c2cncc(C(F)(F)F)c2)n1)c1ccccc1` (stereo not drawn) [Compound 67, 2-Phenyl-2-[2-(5-trifluoromethyl-pyridin-3-yl)-pyrimidin-4-ylamino]-ethanol] is 0.1 to 1 µM.

The same experiment, now with this note: Table 3; 100 uM ATP; read-out: FAK IC50.
Turning to `CNC[C@@H](Nc1ccnc(-c2cccnc2N)n1)c1ccccc1` [Compound 146, (S)-N1-[2-(2-Amino-pyridin-3-yl)-pyrimidin-4-yl]-N2-methyl-1-phenyl-ethane-1,2-diamine], the half-maximal inhibitory concentration (IC50) is greater than 10 µM.
In the case of `Cc1cc(NCc2cccc(F)c2)nc(-c2cccnc2)n1` [Compound 142, N-(3-Fluorobenzyl)-6-methyl-2-pyridin-3-ylpyrimidin-4-amine], the concentration for half-maximal inhibition (IC50) is greater than 10 µM.
For the compound `CN(C)c1ccccc1CNc1ccnc(-c2cccnc2N)n1` [Compound 91, 2-(2-Aminopyridin-3-yl)-N-[2-(dimethylamino)benzyl]pyrimidin-4-amine], the half-inhibitory concentration (IC50) lay in the range of 1 to 10 µM.
Take `Nc1ncccc1-c1nccc(NCc2ccccc2Cl)n1` [Compound 86, 2-(2-Aminopyridin-3-yl)-N-(2-chlorobenzyl)pyrimidin-4-amine]: the IC50 was in the range of 0.1 to 1 µM.
Same read-out and setting: the figure for `Nc1ncc(C(F)(F)F)cc1-c1nccc(NCc2ccccc2C(F)(F)F)n1` [Compound 136, 2-[2-Amino-5-(trifluoromethyl)pyridin-3-yl]-N-[2-(trifluoromethyl)benzyl]pyrimidin-4-amine] is less than 0.1 µM; for `CNCC(Nc1ccnc(-c2cccnc2N)n1)c1ccccc1` (stereo not drawn) [Compound 144, N1-[2-(2-Aminopyridin-3-yl)pyrimidin-4-yl]-N2-methyl-1-phenylethane-1,2-diamine] it is greater than 10 µM; for `CN(c1ncccc1CNc1ccnc(-c2cccnc2N)n1)S(C)(=O)=O` [Compound 88, N-[3-({[2-(2-Aminopyridin-3-yl)pyrimidin-4-yl]amino}methyl)pyridin-2-yl]-N-methylmethane-sulfonamide] it is greater than 10 µM.
Regarding `Nc1ncccc1-c1nccc(NCc2cccc(F)c2)n1` [Compound 79, 2-(2-Aminopyridin-3-yl)-N-(3-fluorobenzyl)pyrimidin-4-amine], the IC50 is greater than 10 µM.
On to `Cc1cccc(CNc2ccnc(-c3cccnc3N)n2)c1` [Compound 95, 2-(2-Aminopyridin-3-yl)-N-(3-methylbenzyl)pyrimidin-4-amine], for which the 50% inhibitory concentration (IC50) was greater than 10 µM.
`Cc1cc(NCc2ccccc2)nc(-c2cccnc2)n1` [Compound 141, N-Benzyl-6-methyl-2-pyridin-3-ylpyrimidin-4-amine]: the concentration for half-maximal inhibition (IC50) was greater than 10 µM.
Same read-out and setting: for `Nc1ncccc1-c1nccc(NCc2ccncc2)n1` [Compound 128, 2-(2-Aminopyridin-3-yl)-N-(pyridin-4-ylmethyl)pyrimidin-4-amine] the value was greater than 10 µM.

The same experiment, now with this note: Table 5; 100 uM ATP; read-out: FAK IC50.
`CN(c1ncccc1CNc1ccnc(-c2cncc(C(F)(F)F)c2)n1)S(C)(=O)=O` [Compound 265, N-Methyl-N-(3-{[2-(5-trifluoromethyl-pyridin-3-yl)-pyrimidin-4-ylamino]-methyl}-pyridin-2-yl)-methanesulfonamide]: the half-maximal inhibitory concentration (IC50) was in the range of 1 to 10 µM.
Consider `COc1cncc(-c2nccc(NCc3ccc4[nH]c(=O)[nH]c4c3)n2)c1` [Compound 216, 5-{[2-(5-Methoxy-pyridin-3-yl)-pyrimidin-4-ylamino]-methyl}-1,3-dihydro-benzoimidazol-2-one], for which the IC50 is greater than 10 µM.
`COc1cncc(-c2nccc(NCCc3ccccc3)n2)c1` [Compound 187, [2-(5-Methoxy-pyridin-3-yl)-pyrimidin-4-yl]-phenethyl-amine]: the IC50 was greater than 10 µM.
The same measure, in the same setting: for `CNC(=O)C1(NC(=O)c2cc(NCc3ccc(F)cc3F)nc(-c3cncc(C(F)(F)F)c3)n2)CC1` [Compound 262, 6-(2,4-Difluoro-benzylamino)-2-(5-trifluoromethyl-pyridin-3-yl)-pyrimidine-4-carboxylic acid (1-methylcarbamoyl-cyclopropyl)-amide] the value was 0.1 to 1 µM; for `CC(Nc1ccnc(-c2cncc(C(F)(F)F)c2)n1)c1ccccc1F` (stereo not drawn) [Compound 267, [1-(2-Fluoro-phenyl)-ethyl]-[2-(5-trifluoromethyl-pyridin-3-yl)-pyrimidin-4-yl]-amine], 0.1 to 1 µM.
Regarding `Fc1ccc(CNc2nccc(-c3cncc(C(F)(F)F)c3)n2)c(C(F)(F)F)c1` [Compound 247, (4-Fluoro-2-trifluoromethyl-benzyl)-[4-(5-trifluoromethyl-pyridin-3-yl)-pyrimidin-2-yl]-amine], the half-maximal inhibitory concentration (IC50) was less than 0.1 µM.
`COc1cncc(-c2nccc(NCc3cc(F)ccc3F)n2)c1` [Compound 226, (2,5-Difluoro-benzyl)-[2-(5-methoxy-pyridin-3-yl)-pyrimidin-4-yl]-amine]: the IC50 lay in the range of 0.1 to 1 µM.
Still for that read-out and setting: the figure for `Fc1cc(Cl)ccc1CNc1nccc(-c2cncc(C(F)(F)F)c2)n1` [Compound 244, (4-Chloro-2-fluoro-benzyl)-[4-(5-trifluoromethyl-pyridin-3-yl)-pyrimidin-2-yl]-amine] is 0.1 to 1 µM; for `COc1cncc(-c2nccc(NCCc3ccccc3Cl)n2)c1` [Compound 203, [2-(2-Chloro-phenyl)-ethyl]-[2-(5-methoxy-pyridin-3-yl)-pyrimidin-4-yl]-amine] it is 1 to 10 µM.
Still for that read-out and setting: the figure for `CNC(=O)C(Nc1ccnc(-c2cncc(C(F)(F)F)c2)n1)c1ccc(O)cc1` (stereo not drawn) [Compound 269, 2-(4-Hydroxy-phenyl)-N-methyl-2-[2-(5-trifluoromethyl-pyridin-3-yl)-pyrimidin-4-ylamino]-acetamide] is greater than 10 µM; for `CNC(=O)C(Nc1ccnc(-c2cncc(C(F)(F)F)c2)n1)c1ccccc1` (stereo not drawn) [Compound 268, N-Methyl-2-phenyl-2-[2-(5-trifluoromethyl-pyridin-3-yl)-pyrimidin-4-ylamino]-acetamide] it is 1 to 10 µM.
As for `Fc1cc(Cl)ccc1CNc1cc(-c2cncc(C(F)(F)F)c2)ncn1` [Compound 253, (4-Chloro-2-fluoro-benzyl)-[6-(5-trifluoromethyl-pyridin-3-yl)-pyrimidin-4-yl]-amine], the IC50 was in the range of 1 to 10 µM.
As to `CN1CCCC1CCNc1ccnc(-c2cncc(C(F)(F)F)c2)n1` (stereo not drawn) [Compound 197, [2-(1-Methyl-pyrrolidin-2-yl)-ethyl]-[2-(5-trifluoromethyl-pyridin-3-yl)-pyrimidin-4-yl]-amine], the IC50 is greater than 10 µM.
`COc1cncc(-c2nccc(NCCc3cccc(C(F)(F)F)c3)n2)c1` [Compound 194, [2-(5-Methoxy-pyridin-3-yl)-pyrimidin-4-yl]-[2-(3-trifluoromethyl-phenyl)-ethyl]-amine]: the IC50 was greater than 10 µM.
Take `Fc1ccc(CNc2ccnc(-c3cccnc3F)n2)c(F)c1` [Compound 212, (2,4-Difluoro-benzyl)-[2-(2-fluoro-pyridin-3-yl)-pyrimidin-4-yl]-amine]: the IC50 was 1 to 10 µM.
